Values quoted from earlier work as cited in patent US20050112339A1, “Antimicrobial protection for plastic structures” (priority 2003, published 2005).

Details: in water

Compound: On1ccccc1=S.On1ccccc1=S.[Cu] [copper pyrithione]
- water solubility: 0.1 milligrams per liter

Compound: [Na+].[O-][n+]1ccccc1[S-] [sodium pyrithione]
- water solubility: 450 grams per liter

Compound: zinc pyrithione
- water solubility: 6 milligrams per liter
